Legend:
[1] = system: activated AKT (pS473), IKK (pS176) and NFκB (pS536); experiment: Western analysis of intestinal tissue of treated B6.Apc^Min/+ mice (NFκB signaling); type: in vivo, mouse; conditions: after 30 days on HFCoco diet and treatment; compared to control inhibitor
Source text: To test the function of this reduction in polyp number in mice treated with the C5aR inhibitor, intestinal tissues were collected and used to extract RNA and protein for expression and western analysis, respectively.

[2] = system: B6.Apc^Min/+ model of intestinal neoplasia; experiment: Polyp number and cross sectional polyp area in B6.Apc^Min/+ mice treated with C5aR antagonist on HFCoco diet; type: in vivo, mouse; conditions: 1 mg/kg subcutaneously every other day for 30 days
Source text: B6.Apc^Min/+ is a mouse model for intestinal neoplasia that carry a mutation in the Apc gene similar to that found in over 85% of sporadic colon cancer cases in humans. The APC mutation results in improper binding of β-catenin to the degradation complex and models the mutation observed in most sporadic human colon cancer tumors. B6.Apc^Min/+ mice develop 50-80 intestinal polyps in the small intestine by 120 days of age (Heijstek et al., 2005, Digest Surg. 22: 16-25). The APC amino acid sequence is 90% identical to that of the human APC.
B6.Apc^Min/+ and the CCSs (A2.Apc^Min/+, A7.Apc^Min/+, A9.Apc^Min/+, A17.Apc^Min/+, and A19.Apc^Min/+) along with the corresponding wild-type controls (B6, B6.A2, B6.A7, B6.A9, B6.A17 and B6.A19, respectively) were born and maintained on the standard 5010 diet until 30 days of age. Male mice were genotyped for the APC mutation using DNA that was purified from tail tissue taken at weaning. […] Body weight and length (to calculate BMI) as well as epidydimal fat pad mass were measured at the final time point.
Body weight and length were measured to calculate body mass index (BMI). Polyp number and polyp size from the small and large intestine were measured. […] The large intestine was excised and analyzed as one region (LI-1). […]

## Acetyl-Phe-[Orn-Pro-D-cyclohexylalanine-Trp-Arg] [PMX-53]
[1]
  activated AKT (pS473) protein level in intestine: significant reduction
  activated IKK (pS176) protein level in intestine: significant reduction
  activated NFκB (pS536) protein level in intestine: significant reduction
[2]
  cross sectional polyp area: significantly reduced
[2]; compared to untreated mice or mice injected with control inhibitor
  polyp number: significant reduction

Source: patent publication US20140219999A1, “TREATMENT OF COLON CANCER USING COMPLEMENT INHIBITORS” (priority 2011, published 2014)
